Key:
[1] = system: HaCaT human keratinocytes; test: Assaying of ATP after irradiation with blue light; assay type: cell-based; conditions: 24 h pretreatment with dry bacterial extract in DMSO containing 0.05 μg/ml neurosporene; blue light 460 nm, 100 J/cm2; ATP standardized by live cells; FIG. 10
Procedure: HaCaT human keratinocytes were seeded into 96-well microplates in a proportion of 20 000 cells/well in DMEM supplemented with 10% of fetal calf serum and incubated at 37° C. in 5% CO2 and 95% humidity for 24 hours. After a period of recovery, the cells were pretreated with a dry bacterial extract taken up in DMSO and containing 0.05 μg/ml of neurosporene and a mixture of carotenoids (phytoene, lycopene, zeta-carotene, phytofluene and gamma-carotene), the neurosporene being the major carotenoid of this extract. The cells were incubated at 37° C. in 5% CO2 and 95% humidity for 24 hours. Immediately afterwards, the cells were irradiated with blue light (460 nm, 100 J/cm 2). The cells were then washed three times in 1×PBS buffer and permeabilized with 2% triton at 25° C. for 20 min. The supernatants were then collected in order to quantify the ATP by luminescence (Invitrogen™ ATP Determination Kit, Molecular Probes™). The amount of ATP per well is standardized by the amount of live cells. Each condition was carried out in triplicate.

[2] = system: explants of human skin of phototype IV; test: Quantification of the melanin in human skin explants irradiated with blue light; conditions: topical refined plant oil with 12.5 ppm neurosporene and 4 ppm other carotenoids, 5 mg/cm2 daily; blue light 447 nm, 202.6 J/cm2; Fontana-Masson staining; p-value<0.01
Procedure: Explants of human skin of phototype IV were placed under culture conditions. After 24 h, three conditions were studied: a nontreated control, a topical treatment with refined plant oil alone or a topical treatment with a preparation of refined plant oil containing neurosporene (12.5 ppm of neurosporene and 4 ppm of a mixture of carotenoids, namely phytoene, lycopene, zeta-carotene, phytofluene and gamma-carotene). The products were applied every day (5 mg/cm 2) for 3 days. Each condition was carried out in triplicate.
After 3 days of pretreatment, a blue light stress was applied by irradiation at the wavelength of 447 nm each day for 3 days, corresponding to a dose of 202.6 J/cm^2. After each irradiation, the explants were again and, depending on the conditions, not treated or treated either with plant oil alone or with the plant oil containing neurosporene.
The melanin was then quantified after analysis of images taken with an epifluorescence microscope (Zeiss, Axio Imager Z1, ApoTome, Zen2 software blue edition) and staining according to the Fontana Masson method. The images were then analyzed on ImageJ. The area of melanin staining was standardized by the length of the basal lamina. The experiment was carried out in triplicate for each condition (nontreated, treatment with vegetable oil alone, treatment with vegetable oil enriched in neurosporene).

[3] = ABTS radical cation reduction test; assay type: physicochemical; conditions: 5 min at ambient temperature, expressed as α-tocopherol equivalent, FIG. 7
Procedure: The ABTS test is based on the use of colored cationic radicals. In the presence of a molecule having an antioxidant power, the colored cationic radical is reduced and loses its color. Consequently, the antioxidant power of a molecule can be measured by the decoloration of the radical.
A solution was prepared by mixing ABTS (7 mM), potassium persulfate (2.45 mM) and water (qs 5 ml) and incubated for 16 hours at ambient temperature in the dark. Next, a range of eight concentrations of neurosporene, lycopene, α-tocopherol, 9Z-β carotene, zeaxanthin, trolox and D-tocotrienol was dispensed into 96-well microplates before adding the ABTS solution prepared above. The microplates were then incubated at ambient temperature for 5 min, and the coloration was then analyzed at 250 nm using a microplate reader.

[4] = system: HaCaT human keratinocytes; test: Detection of ROSs in keratinocytes under irradiation with UVA radiation; assay type: cell-based; conditions: 1 h pretreatment, neurosporene 0 to 4 μg/ml or bacterial extract 0 to 15 μg/ml; UVA 20 J/cm2; CellROX deep red; FIGS. 1-2
Procedure: (§1) HaCaT human keratinocytes were seeded into 96-well microplates in a proportion of 10 000 cells/well in DMEM medium supplemented with 10% of FCS (fetal calf serum) and incubated at 37° C. in 5% CO2 and 95% humidity for 24 hours. After this period of recovery, the cells were pretreated with either 43 μg/ml of α-tocopherol or with an increasing range of neurosporene (from 0 to 4 μg/ml) or with an increasing range of bacterial extract comprising neurosporene (from 0 to 15 μg/ml) for one hour. At the end of the pretreatment, 5 μM of “CellROX deep red” (a label which becomes fluorescent in the presence of reactive oxygen species (ROS)) and Hoechst (10 μg/ml) (which becomes fluorescent when it is bound to the DNA in the nucleus) were added to the medium. Immediately afterwards, the cells were treated either with UVA radiation (20 J/cm 2), or with a blue light (460 nm, 150 J/cm 2). The cells were then washed three times in 1×DPBS buffer and observed under a fluorescence microscope (CellInsight CX7, ThermoFisher). The fluorescence signals were then analyzed using the HCS Studio software (ThermoFisher) in order to quantify the ROSs produced in the cytosol.

[5] = system: HaCaT human keratinocytes; test: Detection of ROSs in keratinocytes under irradiation with blue light; assay type: cell-based; conditions: 1 h pretreatment, neurosporene 0 to 4 μg/ml or bacterial extract 0 to 15 μg/ml; blue light 460 nm, 150 J/cm2; CellROX deep red; FIGS. 3-4
Procedure: as §1

[6] = system: HaCaT human keratinocytes; test: Wound healing test (scratched keratinocyte monolayer); assay type: cell-based; conditions: neurosporene 0.12 μg/ml; FCS-free DMEM; FIG. 6
Procedure: HaCaT human keratinocytes were seeded into 96-well microplates in a proportion of 33 000 cells/well in DMEM medium supplemented with 10% of FCS and incubated at 37° C. in 5% CO2 and 95% humidity for 24 hours. Once confluence was reached, the cells were washed three times in FCS-free DMEM in order to remove from the wells the growth factors present in the complete medium. The keratinocyte monolayers were then scratched using a “WoundMaker” (Essen Biosciences) which makes it possible to injure cell monolayers in 96-well format. The cells were then washed three times with FCS-free DMEM in order to remove the cell debris. After washing, DMEM medium was added to the wells. EGF (Epidermal growth factor, ng/ml) used as positive control for injury filling or neurosporene (0.12 μg/ml) was added to the wells. The wound healing was observed by phase-contrast microscopy using an “Incucyte ZOOM” (Essen Biosciences), which is an automatic microscope maintained in a CO2 incubator. The images were then processed using the associated software.

**Q.** With `CC(C)=CCC/C(C)=C/C=C/C(C)=C/C=C/C(C)=C/C=C/C=C(C)/C=C/C=C(\C)CC/C=C(\C)CCC=C(C)C` [neurosporene, 7,8-dihydro-ψ,ψ-carotene] as the compound, how does the “effect on intracellular ATP reduction induced by blue light” value [1] read?
**A.** The value was “makes it possible to limit the ATP reduction induced by blue light”.

**Q.** What about the “melanin production induced by blue light, change compared to the control exposed without treatment” value [2] of the same compound?
**A.** The value was −25%.

**Q.** What about the “antioxidant power relative to reference molecule α-tocopherol” value [3] of the same compound?
**A.** The value was “two times greater”.

**Q.** What about the “antioxidant power against UVA radiation (ROSs produced in the cytosol)” value [4] of the same compound?
**A.** Its value is “strong antioxidant power”.

**Q.** And the “antioxidant power against blue light (ROSs produced in the cytosol)” value [5]?
**A.** Its value is “strong antioxidant power”.

**Q.** And the “improvement of wound healing (injury filling by cell confluence) compared to nontreated control” value [6]?
**A.** Its value is 35%.

Reference: US20240180802A1, “USE OF NEUROSPORENE TO PROTECT THE SKIN FROM THE HARMFUL EFFECTS OF BLUE LIGHT” (DEINOVE, priority 2019, published 2024)
